This note sets out measurements from paper PMC9173640, “PI Kinase-EhGEF2-EhRho5 axis contributes to LPA stimulated macropinocytosis in Entamoeba histolytica” (PLoS Pathogens, 2022).

Molecules are shown by their SMILES.

The experiment addresses T1, EhRho5 (His-EhRho5; EhRacD) (Entamoeba histolytica, UniProt Q24817).
T1 construct: gene RACD; His-tagged (pET28a+), expressed in E. coli BL21(DE3), PCR-amplified full-length gene
The experiment is described as follows: nucleotide loading, GST-RBD pulldown. Particulars: loaded with 10 mM EDTA; indirect read-out by Rhotekin RBD binding.

T1 sequence (C4LV55 entry or part of it): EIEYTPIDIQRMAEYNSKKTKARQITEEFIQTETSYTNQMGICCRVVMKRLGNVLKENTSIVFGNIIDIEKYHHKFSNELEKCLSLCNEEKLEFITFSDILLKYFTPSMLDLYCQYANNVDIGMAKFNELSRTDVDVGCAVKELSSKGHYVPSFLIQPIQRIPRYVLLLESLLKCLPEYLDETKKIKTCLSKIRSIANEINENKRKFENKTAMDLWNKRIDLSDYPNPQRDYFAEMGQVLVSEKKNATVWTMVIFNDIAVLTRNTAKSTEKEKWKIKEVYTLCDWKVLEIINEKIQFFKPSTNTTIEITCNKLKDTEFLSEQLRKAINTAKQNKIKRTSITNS
T1 sequence (Q24817 whole entry): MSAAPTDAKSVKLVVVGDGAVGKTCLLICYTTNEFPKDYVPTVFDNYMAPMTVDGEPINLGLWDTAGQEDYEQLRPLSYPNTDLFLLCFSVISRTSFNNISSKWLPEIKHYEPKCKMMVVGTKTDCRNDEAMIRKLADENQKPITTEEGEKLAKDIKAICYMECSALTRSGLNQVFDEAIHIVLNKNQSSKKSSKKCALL

As to `Nc1nc2c(ncn2[C@@H]2O[C@H](COP(=O)(O)OP(=O)(O)O)[C@@H](O)[C@H]2O)c(=O)[nH]1` [GDP], the “nucleotide loading, GST-RBD pulldown” value is “GDP bound inactive EhRho5 from the GMPPNP (GTP analog) bound EhRho5”.
Under `Nc1nc2c(ncn2[C@@H]2O[C@H](COP(=O)(O)OP(=O)(O)NP(=O)(O)O)[C@@H](O)[C@H]2O)c(=O)[nH]1` [GMPPNP] stands “nucleotide bound to His-EhRho5 was exchanged with excess of GMPPNP, a nonhydrolyzable GTP analogue”.
